From publication PMC13428274 (ACS infectious diseases, 2025) come the findings set out here.

The target in this experiment is BlaR (Staphylococcus aureus, UniProt P18357). As to the kind of experiment: SPR steady-state fit, immobilized sensor domain. In kind it is binding.
BlaR, sequence (P18357 332-585): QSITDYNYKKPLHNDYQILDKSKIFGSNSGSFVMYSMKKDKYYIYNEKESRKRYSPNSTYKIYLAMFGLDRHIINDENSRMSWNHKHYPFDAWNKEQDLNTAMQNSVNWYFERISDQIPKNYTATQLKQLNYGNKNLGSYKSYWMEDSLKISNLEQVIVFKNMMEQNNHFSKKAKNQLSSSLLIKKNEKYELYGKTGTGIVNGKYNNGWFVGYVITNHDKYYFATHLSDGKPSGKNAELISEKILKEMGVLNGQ

`Cn1ncc2c(Nc3ccc(Br)cc3)nc(Nc3ccc(Br)cc3)nc21` [compound 1, N^4,N^6-bis(4-bromophenyl)-1-methyl-1H-pyrazolo[3,4-d]pyrimidine-4,6-diamine]: binding was characterised by a dissociation constant (Kd) of 31 ± 2 µM.
